Measured values as given in patent US8222218B2, “Cyclopropanated carbohydrates” (Seton Hall University, priority 2008, dated 2012).
Like-named read-outs stand apart in the source and are kept apart here.

Experiments:
MES-induced seizures = experiment: Maximal Electroshock Seizure (MES) test, mice; assay type: in vivo; conditions: mice, i.p.; for responders at 30 mg/kg / responders at 100 mg/kg / responders at 300 mg/kg: Mus musculus, ip
Excerpt: (§1) The MES test is a model for generalized tonic-clonic seizures. The seizures are highly reproducible and electrophysiologically consistent with human seizures. The test provides information about a compound's ability to prevent the spread of seizure when all neuronal circuits of the brain are maximally active. 60 Hz of alternating current (50 mA in mice, 150 mA in rats) is applied for 2 seconds via corneal electrodes that have been treated with an electrolyte solution containing an anesthetic (0.5% tetracaine HCl). Mice are tested at a variety of intervals after an i.p. injection of […] solution of the test compound (commonly in a 0.5% solution of methylcellulose) at 30, 100, and 300 mg/kg doses. Rats are examined after a 30 mg/kg (per os, p.o.) dose that is applied in a volume of 0.04 mL/g. An animal is considered “protected” from MES-induced seizures upon removal of the hind limb extensor component of the seizure.
(§2) Male and female albino CF1 mice (18-25 g, Charles River, Portage, Mich.) and male albino Sprague-Dawley rats (275-300 g, kindling test; 100-150 g all other tests; Charles River, Raleigh, N.C.) were used as experimental animals.

[1] = test system: metrazole-induced clonic seizures; experiment: Subcutaneous Metrazole Seizure Threshold Test (scMET), mice; assay type: in vivo; conditions: mice; for responders at 30 mg/kg / responders at 100 mg/kg / responders at 300 mg/kg: Mus musculus, sc
Protocol: (§3) The subcutaneous injection of metrazole, which is a convulsant, produces clonic seizures in laboratory animals. The scMET test is designed to identify compounds that raise the seizure threshold of an animal. Mice are pretreated with test compound at 30, 100, and 300 mg/kg doses in a similar manner to the MES test. Rats are treated with a 50 mg/kg dose (p.o.). At the previously determined TPE of the test compound, the dose of metrazole that will induce convulsions in 97% of animals (CD97: 85 mg/kg mice) is injected into the loose fold of the skin in the midline of the neck. The animals are placed in isolation cages to minimize stress and observed for the next 30 minutes for the presence or absence of seizures. An episode of clonic spasms (approximately 3-5 seconds) of the fore and/or hindlimbs, jaws or vibrissae is taken as the endpoint.
as §2

[2] = Acute toxicity, minimal motor impairment (rotorod), mice; assay type: in vivo; conditions: for TOX 30 0.5 h (animals toxic/tested) / TOX 30 4 h (animals toxic/tested) / TOX 100 0.5 h (animals toxic/tested) / TOX 100 4 h (animals toxic/tested) / TOX 300 0.5 h (animals toxic/tested) / TOX 300 4 h (animals toxic/tested): mice, rotorod; for TOX 30 0.5 h (animals toxic/tested) / TOX 30 4 h (animals toxic/tested): 30 mg/kg; for TOX 100 0.5 h (animals toxic/tested) / TOX 100 4 h (animals toxic/tested): 100 mg/kg; for TOX 300 0.5 h (animals toxic/tested) / TOX 300 4 h (animals toxic/tested): 300 mg/kg; for minimal motor impairment: at same time point / dose as observed activity
Protocol: (§4) Toxicity was measured using the minimal motor impairment test described below.
Animals are monitored for overt signs of impaired neurological or muscular function to assess a compound's toxicity. In mice, the rotorod procedure is used to disclose minimal muscular or neurological impairment. When a mouse is placed on a rotating rod (6 rpm), the animal can maintain its equilibrium for long periods of time. The animal is considered toxic if it falls off the rotating rod three times during a 1 minute period. In rats, minimal motor deficit is indicated by ataxia, which is manifested by an abnormal, uncoordinated gait.

[3] = test system: electrically-induced psychomotor seizure (6 Hz); experiment: Minimal Clonic Seizure (6 Hz) test, mice; assay type: in vivo; conditions: i.p., 100 mg/kg
Protocol: as §4
(§5) The minimal clonic seizure (6 Hz) test, like the MES test, is used to assess a compound's ability to protect against electrically-induced seizures. The minimal clonic (6 Hz) seizure test uses a lower frequency (6 Hz) and a longer duration of stimulation (3 seconds) than the MES test. Test compounds are pre-administered to mice via i.p. injection. At varying times, individual mice (four per time point) are challenged with sufficient current via corneal electrodes to elicit a psychomotor seizure in 97% of animals (32 mA for 3 second). Untreated mice will display seizure characterized by a minimal clonic phase followed by stereotyped, automatistic behaviors described originally as being similar to the aura of human patients with partial seizures. Animals not displaying this behavior are considered to be protected.
as §2

seizures = experiment: In vivo anticonvulsant screening (MES, scMET, minimal clonic seizure), summary in words; parameters: species or system rat, mouse; conditions: summary of Table 2
Protocol: as §4, §1, §3, §5

[4] = 30 mg/kg, 0.5 h, read-out: MES 30 0.5 h (animals protected/tested)
[5] = 30 mg/kg, 4 h, read-out: MES 30 4 h (animals protected/tested)
[6] = 100 mg/kg, 0.5 h, read-out: MES 100 0.5 h (animals protected/tested)
[7] = 100 mg/kg, 4 h, read-out: MES 100 4 h (animals protected/tested)
[8] = 300 mg/kg, 0.5 h, read-out: MES 300 0.5 h (animals protected/tested)
[9] = 300 mg/kg, 4 h, read-out: MES 300 4 h (animals protected/tested)
[10] = 30 mg/kg, 0.4 h, read-out: scMET 30 0.4 h (animals protected/tested)
[11] = 30 mg/kg, 0.5 h, read-out: scMET 30 0.5 h (animals protected/tested)
[12] = 100 mg/kg, 0.4 h, read-out: scMET 100 0.4 h (animals protected/tested)
[13] = 100 mg/kg, 0.5 h, read-out: scMET 100 0.5 h (animals protected/tested)
[14] = 300 mg/kg, 0.4 h, read-out: scMET 300 0.4 h (animals protected/tested)
[15] = 300 mg/kg, 0.5 h, read-out: scMET 300 0.5 h (animals protected/tested)

SMILES	responders at 30 mg/kg (MES-induced seizures; [4]) [%]	responders at 30 mg/kg (MES-induced seizures; [5]) [%]	responders at 100 mg/kg (MES-induced seizures; [6]) [%]	responders at 100 mg/kg (MES-induced seizures; [7]) [%]	responders at 300 mg/kg (MES-induced seizures; [8]) [%]	responders at 300 mg/kg (MES-induced seizures; [9]) [%]	responders at 30 mg/kg [1, 10] [%]	responders at 30 mg/kg [1, 11] [%]	responders at 100 mg/kg [1, 12] [%]	responders at 100 mg/kg [1, 13] [%]	responders at 300 mg/kg [1, 14] [%]	responders at 300 mg/kg [1, 15] [%]	TOX 30 0.5 h (animals toxic/tested) [2]	TOX 30 4 h (animals toxic/tested) [2]	TOX 100 0.5 h (animals toxic/tested) [2]	TOX 100 4 h (animals toxic/tested) [2]	TOX 300 0.5 h (animals toxic/tested) [2]	TOX 300 4 h (animals toxic/tested) [2]	6 Hz 100 0.25 h (animals protected/tested) [3]	anticonvulsant activity (seizures)	also measured
CCOC(=O)C1[C@@H]2[C@@H](OS(N)(=O)=O)[C@@H]3O[C@H](c4ccc(OC)cc4)OC[C@H]3O[C@H]12 (stereo partly drawn) [Compound 17b, ethyl (2R,4aR,5aS,6aS,7R,7aR)-2-(4-methoxyphenyl)-7(sulfamoyloxy)hexahydro-4H-cyclopropa[5,6]pyrano[3,2-d][1,3]dioxine-6-carboxylate]	0	0	0	0	0	0	0	0	0	0	0	0	0/4	0/2	0/8	0/4	2/4	0/2	0/4	anticonvulsant activity	6 Hz 100 0.5 h (animals protected/tested) [3]: 1/4; 6 Hz 100 2 h (animals protected/tested) [3]: 1/4
CCOC(=O)C1[C@@H]2[C@@H](O)[C@@H]3O[C@H](c4ccc(C(C)C)cc4)OC[C@H]3O[C@H]12 (stereo partly drawn) [Compound 20b, Ethyl (2R,4aR,5aS,6aR,7R,7aS)-7-hydroxy-2-[4-(propan-2-yl)phenyl]hexahydro-4H-cyclopropa[5.6]pyrano[3,2-d][1,3]dioxine-6-carboxylate]													1/4	0/2	0/8	0/4	0/4	0/2		showed activity	MES 30 0.5 h (animals protected/tested) (MES-induced seizures; 30 mg/kg, 0.5 h): 1/5; MES 30 4 h (animals protected/tested) (MES-induced seizures; 30 mg/kg, 4 h): 0/1; MES 100 0.5 h (animals protected/tested) (MES-induced seizures; 100 mg/kg, 0.5 h): 0/7; MES 100 4 h (animals protected/tested) (MES-induced seizures; 100 mg/kg, 4 h): 0/3; MES 300 0.5 h (animals protected/tested) (MES-induced seizures; 300 mg/kg, 0.5 h): 0/1; MES 300 4 h (animals protected/tested) (MES-induced seizures; 300 mg/kg, 4 h): 0/1; scMET 30 0.4 h (animals protected/tested) ([1]; 30 mg/kg, 0.4 h): 0/1; scMET 30 0.5 h (animals protected/tested) ([1]; 30 mg/kg, 0.5 h): 0/1; scMET 100 0.4 h (animals protected/tested) ([1]; 100 mg/kg, 0.4 h): 0/1; scMET 100 0.5 h (animals protected/tested) ([1]; 100 mg/kg, 0.5 h): 0/1; scMET 300 0.4 h (animals protected/tested) ([1]; 300 mg/kg, 0.4 h): 0/1; scMET 300 0.5 h (animals protected/tested) ([1]; 300 mg/kg, 0.5 h): 0/1; minimal motor impairment [2]: minimal motor impairment at the same time point
CCOC(=O)C1[C@@H]2[C@@H](O)[C@@H]3O[C@H](c4ccc(F)cc4F)OC[C@H]3O[C@H]12 (stereo partly drawn) [Compound 20d, Ethyl (2R,4aR,5aS,6aR,7R,7aS)-2-(2,4-difluorophenyl)-7-hydroxyhexahydro-4H-cyclopropa[5,6]pyrano[3,2-d][1,3]dioxine-6-carboxylate]	0	0	0	0	0	0	0	0	0	0	0	0	1/4	0/2	1/8	0/4	2/4	1/2	1/4	exhibited activity	minimal motor impairment [2]: minimal motor impairment at the same dose; 6 Hz 100 0.5 h (animals protected/tested) [3]: 0/4; 6 Hz 100 2 h (animals protected/tested) [3]: 0/4
